Experimental data as given in patent publication US20150309042A1, “FLUOROGENIC DENDRIMER REPORTERS AND RELATED METHODS OF USE” (The Regents of the University of Michigan, priority 2013, published 2015).

Experiments:
KB cells = assay: detection of EdU incorporated into newly synthesized DNA of KB cells by 'click' ligation and flow cytometry; assay type: cell-based
Text: The efficacy of the fluorogenic reporters in monitoring metabolite flux in a typical cell culture system was next evaluated. 5-ethynyl-2′-deoxyuridine (EdU), a nucleoside analogue, incorporation into newly synthesized DNA (Scheme 2), a common molecular biology technique to profile cellular proliferation, was monitored (see, e.g., Hahn, C. G.; Han, L. Y.; Rawson, N. E.; Mirza, N.; Borgmann-Winter, K.; Lenox, R. H.; Arnold, S. E. J Comp Neurol 2005, 483, 154; Salic, A.; Mitchison, T. J. P Natl Acad Sci USA 2008, 105, 2415; Limsirichaikul, S.; Niimi, A.; Fawcett, H.; Lehmann, A.; Yamashita, S.; Ogi, T. Nucleic Acids Res 2009, 37; Yamakoshi, H.; Dodo, K.; Okada, M.; Ando, J.; Palonpon, A.; Fujita, K.; Kawata, S.; Sodeoka, M. J Am Chem Soc 2011, 133, 6102). Traditionally, 5-bromo-2′-deoxyuridine (BrdU), an antibody-specific nucleoside analogue, has been used to monitor DNA synthesis but is limited by the complicated processing and signal variability (see, e.g., Declercq, E.; Descamps, J.; Balzarini, J.; Giziewicz, J.; Barr, P. J.; Robins, M. J. J Med Chem 1983, 26, 661). EdU is a DNA base modified with a terminal alkyne group replacing the methyl group in the 5 position and is readily incorporated into newly synthesized DNA during cell proliferation. […] To compare the detection efficacy of the different fluorogenic reporters, the DNA-incorporated EdU molecules were ligated with either the small molecule 3-azido-7-hydroxy coumarin or the dendrimer-coumarin reporters (G5-Coumarin 3) using ‘click’ reactions and then analyzed by flow cytometry. […] Similar to other ‘click’ reaction detection methods with traditional azide fluorescent reporters, detection of EdU incorporation into DNA with the fluorogenic dendrimer reporters retain the accuracy of the traditional assays but reduces background fluorescence greatly improving assay throughput.
EdU Labeling and Staining of Cultured Cells. […] Fluorescence signal intensities from the samples were measured using an Accuri C6 Flow Cytometer (Ann Arbor, Mich.) and data were analyzed using FlowJo 8.7 software (TreeStar).

[1] = 'click-on' reaction with a representative alkyne-derivatized molecule, fluorescence emission measurement; assay type: physicochemical; conditions: azidocoumarin free vs. attached to the dendrimer
Protocol: The fluorogenic properties of the small molecule and dendrimer coumarin reporters were first evaluated by performing the ‘click’ reaction with a representative alkyne-derivatized molecule, 3-(4-(prop-2-yn-1-yloxy)phenyl)propionic acid at room temperature for 12 hours (Scheme 2). […] However, after attaching to the dendrimer, the absorbance of azidocoumarin has red-shifted 20 nm (λmax Ex 340 vs. 360 nm). Following ligation with the alkyne-derivatized molecule, the G5-Coumarin 3 increased its fluorescence 21-fold (FIG. 1). […] This difference in fluorescent enhancement was primarily attributable to the decrease in the background fluorescence intensity of azidocoumarin on the dendrimer reporter. The structure-property relationships are still under investigation.
Experimental Procedure of “Click-on and Probe” Reaction G5-coumarin 3 was dissolved in Cu(II) sulfate (10 mol % per COUlnarin, 1 mg/mL H20 solution) solution. 3-(4-(prop-2-yn-1-yloxy)phenyl)propanoic acid (5 per coumarin, 5 mg/mL DMSO solution) were added. The reaction mixture was incubated at room temperature for 12 h before diluted in H2O for fluorescent emission measurement. […] The excitation and emission spectra were recorded after dilution using H2O.

In the case of `[N-]=[N+]=Nc1cc2ccc(O)cc2oc1=O` [3-azido-7-hydroxy coumarin], the “fluorescence intensity after standard wash steps” value (KB cells; KB cells with EdU, after standard wash steps) is reported as “decreased”, the “cell positive rate before wash steps” value (KB cells; KB cells with EdU, no washes) is reported as “much higher degree of cell positive rate” and the “fluorescent intensity after ligation with DNA-incorporated EdU” value (KB cells; KB cells, 10 μM EdU for 5 hours, reporters at 10 nM and 100 nM) is reported as “increases in fluorescent intensity”. For the same compound, the “λmax Ex” value [1] was 340 nm.
